Test results: US20260042731A1, “(2,4-DICHLOROPHENOXY)ACETIC ACID ANALOGS” (CORTEVA AGRISCIENCE LLC, priority 2022, published 2026)
Read-outs that look alike come from different tables or passages of the source.

Columns and labels:
[1] = test system: weeds (ABUTH, AMATA, AMBEL, CHEAL, ERICA); assay: Postemergence herbicide evaluation, overall average % weed control across ABUTH, AMATA, AMBEL, CHEAL, ERICA; assay type: in vivo; details: post-emergence, average over the five weeds, read-out: Overall Ave % Weed Control; for pest or weed control at 280 g/ha: 280 g ae/ha; for pest or weed control at 560 g/ha: 560 g ae/ha
[2] = test system: Abutilon theophrasti (ABUTH), velvetleaf; assay: Postemergence herbicide evaluation, growth of Abutilon theophrasti (ABUTH); assay type: in vivo; details: Abutilon theophrasti, post-emergence, percent reduction in plant size relative to untreated control, read-out: AVE. ABUTH; for pest or weed control at 280 g/ha: 280 g ae/ha; for pest or weed control at 560 g/ha: 560 g ae/ha
[3] = test system: Amaranthus rudis (AMATA), tall water hemp; assay: Postemergence herbicide evaluation, growth of Amaranthus rudis (AMATA); assay type: in vivo; details: Amaranthus tuberculatus, post-emergence, percent reduction in plant size relative to untreated control, read-out: Ave. AMATA; for pest or weed control at 280 g/ha: 280 g ae/ha; for pest or weed control at 560 g/ha: 560 g ae/ha
[4] = Volatility of compounds measured by thermogravimetric analysis (TGA); assay type: physicochemical
[5] = test system: Common Lambsquarters (CHEAL); assay: Greenhouse post-emergence mixture trials, percent visual control; assay type: in vivo; details: CHEAL, 21 DAA; for pest or weed control at 560 g/ha / pest or weed control at 1120 g/ha: Chenopodium album, post-emergence, 504 h; for pest or weed control at 1120 g/ha: read-out: % Control
[6] = test system: Ambrosia artemisiifolia (AMBEL), common ragweed; assay: Postemergence herbicide evaluation, growth of Ambrosia artemisiifolia (AMBEL); assay type: in vivo; details: Ambrosia artemisiifolia, post-emergence, percent reduction in plant size relative to untreated control, read-out: AVE. AMBEL; for pest or weed control at 280 g/ha: 280 g ae/ha; for pest or weed control at 560 g/ha: 560 g ae/ha
[7] = Trial Bridge 1, compound 560 g ae/ha, no mixing partner

**Q.** Which results are given for O=C(COc1ccc(Cl)cc1Cl)NOCc1ccccc1 [Compound D8, N-(Benzyloxy)-2-(2,4-dichlorophenoxy)acetamide]?
**A.** pest or weed control at 280 g/ha ([1]; 168 h, 7 DAA): 70%; pest or weed control at 560 g/ha ([1]; 168 h, 7 DAA): 73%; pest or weed control at 280 g/ha ([1]; 336 h, 14 DAA): 85%; pest or weed control at 560 g/ha ([1]; 336 h, 14 DAA): 88%; pest or weed control at 280 g/ha ([1]; 504 h, 21 DAA): 88%; pest or weed control at 560 g/ha ([1]; 504 h, 21 DAA): 93%; pest or weed control at 280 g/ha ([2]; 168 h, 7 DAA): 83%; pest or weed control at 560 g/ha ([2]; 168 h, 7 DAA): 83%; pest or weed control at 280 g/ha ([2]; 336 h, 14 DAA): 93%; pest or weed control at 560 g/ha ([2]; 336 h, 14 DAA): 91%; pest or weed control at 280 g/ha ([2]; 504 h, 21 DAA): 99%; pest or weed control at 560 g/ha ([2]; 504 h, 21 DAA): 96%; pest or weed control at 280 g/ha ([3]; 168 h, 7 DAA): 68%; pest or weed control at 560 g/ha ([3]; 168 h, 7 DAA): 75%; pest or weed control at 280 g/ha ([3]; 336 h, 14 DAA): 85%; pest or weed control at 560 g/ha ([3]; 336 h, 14 DAA): 85%; pest or weed control at 280 g/ha ([3]; 504 h, 21 DAA): 73%; pest or weed control at 560 g/ha ([3]; 504 h, 21 DAA): 83%; TGA Data (rate of weight loss, volatility) [4]: 0.04 µg/min; % Control ([5]; Trial Bridge 2, compound 560 g ae/ha + Saflufenacil 25 g ai or ae/ha): 100%; % Control ([5]; Trial Bridge 2, compound 560 g ae/ha + Saflufenacil 75 g ai or ae/ha): 100%; % Control ([5]; Trial Bridge 2, compound 560 g ae/ha + Trifludimoxazin 12.5 g ai or ae/ha): 100%; % Control ([5]; Trial Bridge 2, compound 560 g ae/ha + Trifludimoxazin 50 g ai or ae/ha): 100%; % Control ([5]; Trial Bridge 2, compound 1120 g ae/ha + Saflufenacil 25 g ai or ae/ha): 100%; % Control ([5]; Trial Bridge 2, compound 1120 g ae/ha + Saflufenacil 75 g ai or ae/ha): 100%; % Control ([5]; Trial Bridge 2, compound 1120 g ae/ha + Trifludimoxazin 12.5 g ai or ae/ha): 100%; % Control ([5]; Trial Bridge 2, compound 1120 g ae/ha + Trifludimoxazin 50 g ai or ae/ha): 100%; % Control ([5]; Trial Bridge 3, compound 560 g ae/ha + Sulfentrazone 130 g ai/ha): 100%; % Control ([5]; Trial Bridge 3, compound 560 g ae/ha + Sulfentrazone 347 g ai/ha): 100%; % Control ([5]; Trial Bridge 3, compound 1120 g ae/ha + Sulfentrazone 130 g ai/ha): 100%; pest or weed control at 560 g/ha ([5]; Trial Bridge 2, compound 560 g ae/ha, no mixing partner): 98%; pest or weed control at 1120 g/ha ([5]; Trial Bridge 2, compound 1120 g ae/ha, no mixing partner): 100%; pest or weed control at 560 g/ha ([5]; Trial Bridge 3, compound 560 g ae/ha, no mixing partner): 100%; pest or weed control at 1120 g/ha ([5]; Trial Bridge 3, compound 1120 g ae/ha, no mixing partner): 100%; pest or weed control at 560 g/ha [5, 7]: 95%; pest or weed control at 1120 g/ha ([5]; Trial Bridge 1, compound 1120 g ae/ha, no mixing partner): 100%; % Control ([5]; Trial Bridge 1, compound 560 g ae/ha + Arylex 5 g ai or ae/ha): 100%; % Control ([5]; Trial Bridge 1, compound 560 g ae/ha + Mesotrione 150 g ai or ae/ha): 100%; % Control [5, 7]: 95%; % Control ([5]; Trial Bridge 1, compound 1120 g ae/ha + Glufosinate 600 g ai or ae/ha): 100%; % Control ([5]; Trial Bridge 1, compound 1120 g ae/ha + Mesotrione 150 g ai or ae/ha): 100%; pest or weed control at 280 g/ha ([6]; 168 h, 7 DAA): 68%; pest or weed control at 560 g/ha ([6]; 168 h, 7 DAA): 75%; pest or weed control at 280 g/ha ([6]; 336 h, 14 DAA): 96%; pest or weed control at 560 g/ha ([6]; 336 h, 14 DAA): 95%
